Laboratory results reported in patent publication US10947241B2, “Phenyl phthalazine derivative, method for the preparation thereof, and pharmaceutical composition comprising the same” (Seoul National University Hospital, priority 2016, dated 2021).
Counter-ions that a name gives are not always drawn.

Target: hResistin (Homo sapiens (Human), UniProt Q9HD89)
Test: Evaluation of the ability to inhibit TNF-α secretion by hResistin (THP-1 cells, ELISA)
Assay type: cell-based
Conditions: for inhibition at 5 µM: inhibition of TNF-α secretion by hResistin in THP-1 cells; for IC50: THP-1 human monocyte cell line, human recombinant Resistin
Protocol: Experimental Example: Evaluation of the Ability to Inhibit TNF-α Secretion by hResistin
Using THP-1 (human monocyte) cell line and ELISA system, the abilities to inhibit TNF-α secretion by hResistin (IC50) were evaluated for the compounds prepared in the above examples. The compounds target hResistin, and the abilities of the compounds to inhibit TNF-α secretion by human recombinant Resistin in human monocyte (THP-1) were evaluated. The abilities to inhibit TNF-α secretion were assessed by ELISA quantifying the amount of antibody with the enzyme as a marker using an antigen-antibody reaction.
Specifically, the cultured cells were spun down at 1,500 rpm for 2 minutes, the supernatant was removed and then the cells were re-suspended in 10 mL of complete RPMI-1640 medium. After counting the number of cells using Luna™ Automated Cell Counter, cells were plated into 96-well assay plates at 50 μL per well. The cells cultured for 24 hours were treated with the test substances in accordance with the concentration for 1 hour, and then the supernatant was collected and subjected to ELISA assay. In the ELISA assay, the absorbance at 450 nm (OD450 nm) was measured using Flexstation 3. The ability of each test substance to inhibit TNF-α secretion (IC50) and its inhibition at a concentration of 5 uM are shown in Table 1 below.

Sequence of hResistin (Q9HD89 19-108): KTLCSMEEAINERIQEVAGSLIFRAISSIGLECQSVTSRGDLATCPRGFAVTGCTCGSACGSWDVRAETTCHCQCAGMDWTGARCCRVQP

Which inhibition at 5 µM does the source give for `O=C([C@@H]1CCCN1)N1CCN(c2nnc(-c3ccc(Cl)cc3)c3ccccc23)CC1` [Example 59, (S)-(4-(4-(4-chlorophenyl)phthalazin-1-yl)piperazin-1-yl)(pyrrolidin-2-yl)methanone hydrochloride] here?
Its inhibition at 5 µM is 60.3%.

Which inhibition at 5 µM does the source give for `CC(C)[C@H](N)C(=O)N1CCN(c2nnc(-c3ccc(Cl)cc3)c3ccccc23)C[C@@H]1C` [Example 73, (S)-2-amino-1-((S)-4-(4-(4-chlorophenyl)phthalazin-1-yl)-2-methylpiperazin-1-yl)-3-methylbutan-1-one hydrochloride] here?
Its inhibition at 5 µM is 53.6%.

With `CC(C)(N)C(=O)N1CCC(c2nnc(-c3ccc(Cl)cc3)c3ccccc23)CC1` [Example 64, 2-amino-1-(4-(4-(4-chlorophenyl)phthalazin-1-yl)piperidin-1-yl)-2-methylpropan-1-one hydrochloride] as the compound, how does the inhibition at 5 µM read?
The inhibition at 5 µM was 23.9%.

With `Clc1ccc(-c2nnc(N3CCC4CCNC4C3)c3ccccc23)cc1` (stereo not shown) [Example 87, 1-(4-chlorophenyl)-4-(tetrahydro-1H-pyrrolo[2,3-c]pyridin-6(2H,7H,7aH)-yl)phthalazine hydrochloride] as the compound, how does the IC50 read?
Its IC50 is 1700 nM.

For `N[C@H](C(=O)N1CCN(c2nnc(-c3ccc(Cl)cc3)c3ccccc23)CC1)c1ccccc1` [Example 80, (S)-2-amino-1-(4-(4-(4-chlorophenyl)phthalazin-1-yl)piperazin-1-yl)-2-phenylethanone hydrochloride], which inhibition at 5 µM is on record?
The inhibition at 5 µM was 69.9%.

How did the inhibition at 5 µM turn out when `CNCCCN(C)c1nnc(-c2ccc(Cl)cc2)c2ccccc12` [Example 55, N1-(4-(4-chlorophenyl)phthalazin-1-yl)-N1,N3-dimethylpropane-1,3-diamine hydrochloride] was run?
The inhibition at 5 µM was 13.1%.

How did the inhibition at 5 µM turn out when `O=C([C@H]1CCCN1)N1CCN(c2nnc(-c3ccc(Cl)cc3)c3ccccc23)CC1` [Example 51, (R)-(4-(4-(4-chlorophenyl)phthalazin-1-yl)piperazin-1-yl)(pyrrolidin-2-yl)methanone hydrochloride] was run?
The inhibition at 5 µM was 88.2%.

And the IC50?
Its IC50 is 800 nM.

With `Clc1ccc(-c2nnc(O[C@H]3CCNC3)c3ccccc23)cc1` [Example 95, (S)-1-(4-chlorophenyl)-4-(pyrrolidin-3-yloxy)phthalazine hydrochloride] as the compound, how does the inhibition at 5 µM read?
Its inhibition at 5 µM is 64%.

And the IC50?
The IC50 was 2300 nM.

Which IC50 does the source give for `OCCN1CCN(c2nnc(-c3ccccc3)c3ccccc23)CC1` [Example 1, 2-(4-(4-phenylphthalazin-1-yl)piperazin-1-yl)ethanol] here?
Its IC50 is 1000 nM.

How did the inhibition at 5 µM turn out when `CC(C)[C@H](N)C(=O)N1CCC(c2nnc(-c3ccc(Cl)cc3)c3ccccc23)CC1` [Example 61, (S)-2-amino-1-(4-(4-(4-chlorophenyl)phthalazin-1-yl)piperidin-1-yl)-3-methylbutan-1-one hydrochloride] was run?
Its inhibition at 5 µM is 21.2%.

With `CC(C)(N)C(=O)N1CCN(c2nnc(-c3ccc(CCC(=O)O)cc3)c3ccccc23)CC1` [Example 104, 3-(4-(4-(4-(2-amino-2-methylpropanoyl)piperazin-1-yl)phthalazin-1-yl)phenyl)propanoic acid hydrochloride] as the compound, how does the inhibition at 5 µM read?
Its inhibition at 5 µM is 0.6%.

Which results are given for `OCCC1CCN(c2nnc(-c3ccc(Cl)cc3)c3ccccc23)CC1` [Example 4, 2-(1-(4-(4-chlorophenyl)phthalazin-1-yl)piperidin-4-yl)ethanol]?
inhibition at 5 µM: 40.4%; IC50: 1600 nM

With `O=C([C@@H]1CCCN1)N1CCC(c2nnc(-c3ccc(Cl)cc3)c3ccccc23)CC1` [Example 62, (S)-(4-(4-(4-chlorophenyl)phthalazin-1-yl)piperidin-1-yl)(pyrrolidin-2-yl)methanone hydrochloride] as the compound, how does the inhibition at 5 µM read?
The inhibition at 5 µM was 24.8%.

Which inhibition at 5 µM does the source give for `CC(C)(N)C(=O)N1CCN(c2nnc(-c3ccc(Cl)cc3)c3ccccc23)CC1` [Example 43, 2-amino-1-(4-(4-(4-chlorophenyl)phthalazin-1-yl)piperazin-1-yl)-2-methyl propan-1-one hydrochloride] here?
Its inhibition at 5 µM is 84.4%.

What about the IC50 of the same compound?
Its IC50 is 1300 nM.

For `Clc1ccc(-c2nnc(N3CCN(CC4CC4)CC3)c3ccccc23)cc1` [Example 50, 1-(4-chlorophenyl)-4-(4-(cyclopropylmethyl)piperazin-1-yl)phthalazine], which inhibition at 5 µM is on record?
The inhibition at 5 µM was 54%.
